Assays:
PD-1/PD-L1 = PD-1/PD-L1 (Homo sapiens (Human), UniProt Q9NZQ7); test: PD-1/PD-L1 biochemical protein-protein interaction assay (ALPHA); assay type: binding; conditions: 0.3 nM His tagged PD-L1, 2.5 nM biotinylated Fc-PD-1, Table 3B, read-out: IC50 PD-L1-PD1
PD-L1 = PD-L1 (Homo sapiens (Human), UniProt Q9NZQ7); test: PD-L1/PD-L1 dimerization biochemical protein-protein interaction assay (ALPHA); assay type: binding; conditions: 0.5 nM His tagged PD-L1 and 0.5 nM FLAG tagged PD-L1, Table 4B, read-out: AC50 PDL1 Dimer 1 nM
Sequence of PD-L1 (Q9NZQ7 19-238): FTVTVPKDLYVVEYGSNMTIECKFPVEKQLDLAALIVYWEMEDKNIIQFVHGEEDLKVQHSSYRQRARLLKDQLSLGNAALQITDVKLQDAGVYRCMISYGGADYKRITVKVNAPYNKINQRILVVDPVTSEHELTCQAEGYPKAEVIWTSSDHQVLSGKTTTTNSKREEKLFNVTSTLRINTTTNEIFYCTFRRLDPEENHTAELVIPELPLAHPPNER
Sequence of PD-L1 (Q9NZQ7 19-238): as above

Sequence of PD-1/PD-L1 (Q9NZQ7 19-238): as above

IC50 (PD-1/PD-L1) [nM]	AC50 (PD-L1) [nM]	Structure (SMILES)
0.064	2.65	COc1cc(-c2cccc(-c3cccc4c3CC[C@@H]4Oc3nc(OC)c(CNC4(C(=O)O)CC4)cc3C(F)(F)F)c2Cl)ccc1CNC[C@@H]1CCC(=O)N1 [B-122]
0.084	78.5	COc1nc(O[C@H]2CCc3c(-c4cccc(-c5cc(C)c(CN6C[C@@H]7[C@H](C6)[C@H]7C(=O)O)c(OC)n5)c4Cl)cccc32)c(Cl)cc1CNC[C@@H]1CCC(=O)N1 [B-124]
0.064	6.79	COc1nc(O[C@H]2CCc3c(-c4cccc(-c5ccc(CNC[C@@H]6CCC(=O)N6)c(OCC#N)n5)c4Cl)cccc32)c(C(F)(F)F)cc1CNC1(C(=O)O)CC1 [B-125]
0.064	5.46	COc1nc(O[C@H]2CCc3c(-c4cccc(-c5ccc(CNC[C@@H]6CCC(=O)N6)c(OCC#N)n5)c4Cl)cccc32)c(C(F)(F)F)cc1CN1CC[C@@H](C(=O)O)C1 [B-127]
0.064	13.5	COc1cc(-c2cccc(-c3cccc4c3CC[C@@H]4Oc3nc(OC)c(CNC4(C(=O)O)CC4)cc3Cl)c2Cl)cc(F)c1CNC[C@@H]1CCC(=O)N1 [B-128]
0.064	10.5	COc1cc(-c2cccc(-c3cccc4c3CC[C@@H]4Oc3nc(OC)c(CN4CC[C@@H](C(=O)O)C4)cc3Cl)c2Cl)cc(F)c1CNC[C@@H]1CCC(=O)N1 [B-131]
0.266	301	COc1nc(O[C@H]2CCc3c(-c4cccc(-c5cc(C)c(CN6C[C@@H]7C[C@]7(C(=O)O)C6)c(OC)n5)c4Cl)cccc32)c(Cl)cc1CNC[C@@H]1CCC(=O)N1 [B-132]
0.064	99.1	COc1nc(O[C@H]2CCc3c(-c4cccc(-c5cc(C)c(CN6CC[C@@H](C(=O)O)C6)c(OC)n5)c4Cl)cccc32)c(Cl)cc1CNC[C@@H]1CCC(=O)N1 [B-133]
0.064	0.727	COc1nc(-c2cccc(-c3cccc4c3CC[C@@H]4Oc3nc(OC)c(CN4CC5CCC4(C(=O)O)CC5)cc3C(F)(F)F)c2Cl)ccc1CNC[C@@H]1CCC(=O)N1 [B-134]
0.064	11	COc1nc(-c2cccc(-c3cccc4c3CC[C@@H]4Oc3nc(OC)c(CN4[C@@H]5C[C@@H]5C[C@H]4C(=O)O)cc3C(F)(F)F)c2Cl)ccc1CNC[C@@H]1CCC(=O)N1 [B-136]
0.064	6.19	COc1nc(-c2cccc(-c3cccc4c3CC[C@@H]4Oc3nc(OC)c(CN4[C@H](C(=O)O)C[C@@H]5C[C@@H]54)cc3C(F)(F)F)c2Cl)ccc1CNC[C@@H]1CCC(=O)N1 [B-137]
0.064	10.2	COc1nc(-c2cccc(-c3cccc4c3CC[C@@H]4Oc3nc(OC)c(CNC4(C(=O)O)CC5CCC4C5)cc3Cl)c2Cl)ccc1CNC[C@@H]1CCC(=O)N1 (some centres unmarked) [B-139]
0.064	2.28	COc1cc(-c2cccc(-c3cccc4c3CC[C@@H]4Oc3nc(OC)c(CN4CC5(C(=O)O)CCC4CC5)cc3C(F)(F)F)c2Cl)ccc1CNC[C@@H]1CCC(=O)N1 [B-140]

Continued, compound first:

Structure (SMILES)	IC50 (PD-1/PD-L1) [nM]	AC50 (PD-L1) [nM]
COc1cc(-c2cccc(-c3cccc4c3CC[C@@H]4Oc3nc(OC)c(CNC(C)(C)C(=O)O)cc3C(F)(F)F)c2Cl)ccc1CNC[C@@H]1CCC(=O)N1 [B-121]	0.064	1.62
COc1nc(O[C@H]2CCc3c(-c4cccc(-c5cc(C)c(CN6CC(C(=O)O)C7(CC7)C6)c(OC)n5)c4Cl)cccc32)c(Cl)cc1CNC[C@@H]1CCC(=O)N1 (some centres unmarked) [B-123]	0.064	133
COc1nc(O[C@H]2CCc3c(-c4cccc(-c5ccc(CNC[C@@H]6CCC(=O)N6)c(OCC#N)n5)c4Cl)cccc32)c(C(F)(F)F)cc1CN1CC2(C(=O)O)CCC1CC2 [B-126]	0.064	3.35
COc1cc(-c2cccc(-c3cccc4c3CC[C@@H]4Oc3nc(OC)c(CN4CC5(C(=O)O)CCC4CC5)cc3Cl)c2Cl)cc(F)c1CNC[C@@H]1CCC(=O)N1 [B-129]	0.064	16.5
COc1cc(-c2cccc(-c3cccc4c3CC[C@@H]4Oc3nc(OC)c(CN4CC(C(=O)O)C4)cc3Cl)c2Cl)cc(F)c1CNC[C@@H]1CCC(=O)N1 [B-130]	0.064	4.87
COc1nc(-c2cccc(-c3cccc4c3CC[C@@H]4Oc3nc(OC)c(CN4CCCC[C@@]4(C)C(=O)O)cc3C(F)(F)F)c2Cl)ccc1CNC[C@@H]1CCC(=O)N1 [B-135]	0.064	2.76
COc1nc(-c2cccc(-c3cccc4c3CC[C@@H]4Oc3nc(OC)c(CN4C[C@@H]5C[C@@H]5[C@H]4C(=O)O)cc3C(F)(F)F)c2Cl)ccc1CNC[C@@H]1CCC(=O)N1 [B-138]	0.064	11.6
COc1cc(-c2cccc(-c3cccc4c3CC[C@@H]4Oc3nc(OC)c(CN4CC(C)(C(=O)O)C4)cc3C(F)(F)F)c2Cl)ccc1CNC[C@@H]1CCC(=O)N1 [B-141]	0.064	5.83
COc1nc(O[C@H]2CCc3c(-c4cccc(-c5cc(F)c(CNC[C@@H]6CCC(=O)N6)c(OC)n5)c4Cl)cccc32)c(Cl)cc1CN1CC(C(=O)O)C1 [B-142]	0.064	38.9
